Measured values taken from US11084800B2 (Achillion Pharmaceuticals, Inc., priority 2017, dated 2021).

Target: Human Factor D (Homo sapiens (Human), UniProt P00746)
Assay: Human Factor D Assay
Type: biochemical
Conditions: Factor D inhibition, assay of Example 10; read-out: IC5 (Stars)
Procedure, shortened: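 Thioester substrate Z-L-Lys-SBz (100 μM) with Ellman's reagent DTNB (100 μM) reports activity of 80 nM human serum-derived enzyme, kinetically at 405 nm over 30 min. Compound preincubated 5 min, room temperature, pH 7.5 Tris/1 M NaCl; IC50 by nonlinear fit of rates.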

Human Factor D, sequence (P00746 26-253): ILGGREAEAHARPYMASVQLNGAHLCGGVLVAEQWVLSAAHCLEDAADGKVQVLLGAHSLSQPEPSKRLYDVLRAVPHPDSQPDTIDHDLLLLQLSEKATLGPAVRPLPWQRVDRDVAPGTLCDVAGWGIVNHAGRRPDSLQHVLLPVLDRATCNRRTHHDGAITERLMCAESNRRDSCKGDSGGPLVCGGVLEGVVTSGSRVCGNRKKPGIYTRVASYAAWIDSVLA

Structure (SMILES)	IC50 [µM]
CC(=O)c1nn(CC(=O)N2[C@H](C(=O)Nc3nc(Br)ccc3C)C[C@@]3(CN4CC5(CC5)C4)C[C@@H]23)c2c(C)cc(-c3cnc(C)nc3)cc12 [Compound 366, (1R,3S,5R)-5-(5-azaspiro[2.3]hexan-5-ylmethyl)-2-(2-(3-acetyl-7-methyl-5-(2-methylpyrimidin-5-yl)-1H-indazol-1-yl)acetyl)-N-(6-bromo-3-methylpyridin-2-yl)-2-azabicyclo[3.1.0]hexane-3-carboxamide]	< 1
Cc1ncc(-c2ccc3c(c2)c(CC#N)nn3CC(=O)N2[C@H](C(=O)Nc3nc(Br)ccc3C)C[C@@]3(C)C[C@@H]23)cn1 [Compound 367, (1R,3S,5R)-N-(6-bromo-3-methylpyridin-2-yl)-2-(2-(3-(cyanomethyl)-5-(2-methylpyrimidin-5-yl)-1H-indazol-1-yl)acetyl)-5-methyl-2-azabicyclo[3.1.0]hexane-3-carboxamide]	> 10
Cc1ncc(-c2ccc3c(c2)c(C(C)(C)C#N)nn3CC(=O)N2[C@H](C(=O)Nc3nc(Br)ccc3C)C[C@@]3(C)C[C@@H]23)cn1 [Compound 368, (1R,3S,5R)-N-(6-bromo-3-methylpyridin-2-yl)-2-(2-(3-(2-cyanopropan-2-yl)-5-(2-methylpyrimidin-5-yl)-1H-indazol-1-yl)acetyl)-5-methyl-2-azabicyclo[3.1.0]hexane-3-carboxamide]	> 10
CC(=O)c1nn(CC(=O)N2[C@H](C(=O)Nc3nc(Br)ccc3C)C[C@@]3(CN4CC5(CC5)C4)C[C@@H]23)c2c(CF)cc(-c3cnc(C)nc3)cc12 [Compound 369, (1R,3S,5R)-5-(5-azaspiro[2.3]hexan-5-ylmethyl)-2-(2-(3-acetyl-7-(fluoromethyl)-5-(2-methylpyrimidin-5-yl)-1H-indazol-1-yl)acetyl)-N-(6-bromo-3-methylpyridin-2-yl)-2-azabicyclo[3.1.0]hexane-3-carboxamide]	< 1
CC(=O)c1nn(CC(=O)N2[C@H](C(=O)Nc3nc(Br)ccc3C)C[C@@]3(CN4CC5(CC5)C4)C[C@@H]23)c2c(C)nc(-c3cnc(C)nc3)cc12 [Compound 370, (1R,3S,5R)-5-(5-azaspiro[2.3]hexan-5-ylmethyl)-2-(2-(3-acetyl-7-methyl-5-(2-methylpyrimidin-5-yl)-1H-pyrazolo[3,4-c]pyridin-1-yl)acetyl)-N-(6-bromo-3-methylpyridin-2-yl)-2-azabicyclo[3.1.0]hexane-3-carboxamide]	< 1
CC(=O)c1nn(CC(=O)N2[C@H](C(=O)Nc3nc(Br)ccc3C)C[C@@]3(Cc4nc(C)no4)C[C@@H]23)c2c(C)cc(-c3cnc(C)nc3)cc12 [Compound 372, (1R,3S,5R)-2-(2-(3-acetyl-7-methyl-5-(2-methylpyrimidin-5-yl)-1H-indazol-1-yl)acetyl)-N-(6-bromo-3-methylpyridin-2-yl)-5-((3-methyl-1,2,4-oxadiazol-5-yl)methyl)-2-azabicyclo[3.1.0]hexane-3-carboxamide]	< 1
CC(=O)c1nn(CC(=O)N2[C@H](C(=O)Nc3nc(Br)ccc3C)C[C@@]3(C)C[C@@H]23)c2cc(C)c(-c3cnc(C)nc3)cc12 [Compound 373, (1R,3S,5R)-2-(2-(3-acetyl-6-methyl-5-(2-methylpyrimidin-5-yl)-1H-indazol-1-yl)acetyl)-N-(6-bromo-3-methylpyridin-2-yl)-5-methyl-2-azabicyclo[3.1.0]hexane-3-carboxamide]	< 1
CC(=O)c1nn(CC(=O)N2[C@H](C(=O)Nc3nc(Br)ccc3C)C[C@@]3(CCN(C)C)C[C@@H]23)c2c(CF)cc(-c3cnc(C)nc3)cc12 [Compound 377, (1R,3S,5R)-2-(2-(3-acetyl-7-(fluoromethyl)-5-(2-methylpyrimidin-5-yl)-1H-indazol-1-yl)acetyl)-N-(6-bromo-3-methylpyridin-2-yl)-5-(2-(dimethylamino)ethyl)-2-azabicyclo[3.1.0]hexane-3-carboxamide]	< 1
CC(=O)c1nn(CC(=O)N2[C@H](C(=O)Nc3nc(Br)ccc3C)C[C@@]3(CCCCN(C)C)C[C@@H]23)c2c(CF)cc(-c3cnc(C)nc3)cc12 [Compound 378, (1R,3S,5R)-2-(2-(3-acetyl-7-(fluoromethyl)-5-(2-methylpyrimidin-5-yl)-1H-indazol-1-yl)acetyl)-N-(6-bromo-3-methylpyridin-2-yl)-5-(4-(dimethylamino)butyl)-2-azabicyclo[3.1.0]hexane-3-carboxamide]	< 1
CC(=O)c1nn(CC(=O)N2[C@H](C(=O)Nc3nc(C(F)(F)F)ccc3C)C[C@@]3(CCCN(C)C)C[C@@H]23)c2c(CF)cc(-c3cnc(C)nc3)cc12 [Compound 380, (1R,3S,5R)-2-(2-(3-acetyl-7-(fluoromethyl)-5-(2-methylpyrimidin-5-yl)-1H-indazol-1-yl)acetyl)-5-(3-(dimethylamino)propyl)-N-(3-methyl-6-(trifluoromethyl)pyridin-2-yl)-2-azabicyclo[3.1.0]hexane-3-carboxamide]	< 1
CC(=O)c1nn(CC(=O)N2[C@H](C(=O)Nc3nc(Br)ccc3C)C[C@@]3(COC(F)F)C[C@@H]23)c2cnc(-c3cnc(C)nc3)cc12 [Compound 384, (1R,3S,5S)-2-(2-(3-Acetyl-5-(2-methylpyrimidin-5-yl)-1H-pyrazolo[3,4-c]pyridin-1-yl)acetyl)-N-(6-bromo-3-methylpyridin-2-yl)-5-((difluoromethoxy)methyl)-2-azabicyclo[3.1.0]hexane-3-carboxamide]	< 1
CC(=O)c1nn(CC(=O)N2[C@H](C(=O)Nc3nc(Br)ccc3Cl)C[C@@]3(C)C[C@@H]23)c2ccc(-c3cnc(C)nc3)cc12 [Compound 386, (1R,3S,5R)-2-(2-(3-acetyl-5-(2-methylpyrimidin-5-yl)-1H-indazol-1-yl)acetyl)-N-(6-bromo-3-chloropyridin-2-yl)-5-methyl-2-azabicyclo[3.1.0]hexane-3-carboxamide]	< 1
CC(=O)c1nn(CC(=O)N2C[C@H]3C[C@H]3[C@H]2C(=O)Nc2nc(Br)ccc2C)c2c(C(C)C)nc(-c3cnc(C)nc3)cc12 [Compound 388, (1R,25,5S)-3-(2-(3-acetyl-7-isopropyl-5-(2-methylpyrimidin-5-yl)-1H-pyrazolo[3,4-c]pyridin-1-yl)acetyl)-N-(6-bromo-3-methylpyridin-2-yl)-3-azabicyclo[3.1.0]hexane-2-carboxamide]	< 1
Cc1ncc(-c2ccc3c(c2)c(C(=O)c2ncc[nH]2)nn3CC(=O)N2[C@H](C(=O)Nc3nc(Br)ccc3C)C[C@@]3(C)C[C@@H]23)cn1 [Compound 389, (1R,3S,5R)-2-(2-(3-(1H-Imidazole-2-carbonyl)-5-(2-methylpyrimidin-5-yl)-1H-indazol-1-yl)acetyl)-N-(6-bromo-3-methylpyridin-2-yl)-5-methyl-2-azabicyclo[3.1.0]hexane-3-carboxamide]	> 10
CC(=O)c1nn(CC(=O)N2C[C@H]3C[C@H]3[C@H]2C(=O)Nc2nc(Br)c(F)cc2C)c2c(C)nc(-c3cnc(C)nc3)cc12 [Compound 393, (1R,2S,5S)-3-(2-(3-acetyl-7-methyl-5-(2-methylpyrimidin-5-yl)-1H-pyrazolo[3,4-c]pyridin-1-yl)acetyl)-N-(6-bromo-5-fluoro-3-methylpyridin-2-yl)-3-azabicyclo[3.1.0]hexane-2-carboxamide]	< 1
COc1cc2c(cc1-c1cnc(C)nc1)c(C(C)=O)nn2CC(=O)N1[C@H](C(=O)Nc2nc(Br)ccc2C)C[C@@]2(C)C[C@@H]12 [Compound 394, (1R,3S,5R)-2-(2-(3-acetyl-6-methoxy-5-(2-methylpyrimidin-5-yl)-1H-indazol-1-yl)acetyl)-N-(6-bromo-3-methylpyridin-2-yl)-5-methyl-2-azabicyclo[3.1.0]hexane-3-carboxamide]	< 1
COC(=O)c1cc2c(cc1-c1cnc(C)nc1)c(C(C)=O)nn2CC(=O)N1[C@H](C(=O)Nc2nc(Br)ccc2C)C[C@@]2(C)C[C@@H]12 [Compound 395, methyl 3-acetyl-1-(2-((1R,3S,5R)-3-((6-bromo-3-methylpyridin-2-yl)carbamoyl)-5-methyl-2-azabicyclo[3.1.0]hexan-2-yl)-2-oxoethyl)-5-(2-methylpyrimidin-5-yl)-1H-indazole-6-carboxylate]	< 1
CC(=O)c1nn(CC(=O)N(C(=O)[C@@H]2C[C@@]3(C)C[C@H]3N2)c2nc(Br)ccc2CN(CCC(F)(F)F)CCC(F)(F)F)c2cnc(-c3cnc(C)nc3)cc12 [Compound 396, (1R,3S,5R)-2-(2-(3-acetyl-5-(2-methylpyrimidin-5-yl)-1H-pyrazolo[3,4-c]pyridin-1-yl)acetyl)-N-(3-((bis(3,3,3-trifluoropropyl)amino)methyl)-6-bromopyridin-2-yl)-5-methyl-2-azabicyclo[3.1.0]hexane-3-carboxamide]	< 1

Same assay, conditions: Table 8; Factor D 80 nM, substrate Z-L-Lys-SBz; read-out: IC50

Structure (SMILES)	IC50 [µM]
COC(=O)CCCCCCCCCCCCCCCCC(=O)N[C@@H](CCC(=O)NCCOCCOCC(=O)NCCOCCOCC(=O)NC[C@@]12C[C@@H](C(=O)Nc3nc(Br)ccc3C)N(C(=O)Cn3nc(C(C)=O)c4cc(-c5cnc(C)nc5)cc(C)c43)[C@@H]1C2)C(=O)OC [Compound 391, Methyl (S)-1-((1R,3S,5R)-2-(2-(3-acetyl-7-methyl-5-(2-methylpyrimidin-5-yl)-1H-indazol-1-yl)acetyl)-3-((6-bromo-3-methylpyridin-2-yl)carbamoyl)-2-azabicyclo[3.1.0]hexan-5-yl)-24-(methoxycarbonyl)-3,12,21,26-tetraoxo-5,8,14,17-tetraoxa-2,11,20,25-tetraazatritetracontan-43-oate]	< 1
CC(=O)c1nn(CC(=O)N2[C@H](C(=O)Nc3nc(Br)ccc3C)C[C@@]3(CNC(=O)COCCOCCNC(=O)COCCOCCNC(=O)CC[C@H](NC(=O)CCCCCCCCCCCCCCCCC(=O)O)C(=O)O)C[C@@H]23)c2c(C)cc(-c3cnc(C)nc3)cc12 [Compound 392, (S)-1-((1R,3S,5R)-2-(2-(3-Acetyl-7-methyl-5-(2-methylpyrimidin-5-yl)-1H-indazol-1-yl)acetyl)-3-((6-bromo-3-methylpyridin-2-yl)carbamoyl)-2-azabicyclo[3.1.0]hexan-5-yl)-24-carboxy-3,12,21,26-tetraoxo-5,8,14,17-tetraoxa-2,11,20,25-tetraazatritetracontan-43-oic acid]	< 1
